Reference: ChEMBL document CHEMBL5303573, “Mapping human microbiome drug metabolism by gut bacteria and their genes” (Nature, 2019)

Columns and labels:
[1] = The drug is tested on Bifidobacterium breve strain: DSM20213 for biotransformation. The drug concentrations were measured before and after a 12-h incubation by liquid-chromatography-coupled mass spectrometry (LC–MS); conditions: 2 µM
[2] = The drug is tested on Eggerthella lenta strain: ATCC25559 for biotransformation. The drug concentrations were measured before and after a 12-h incubation by liquid-chromatography-coupled mass spectrometry (LC–MS); conditions: 2 µM
[3] = The drug is tested on Alistipes indistinctus strain: DSM22520 for biotransformation. The drug concentrations were measured before and after a 12-h incubation by liquid-chromatography-coupled mass spectrometry (LC–MS); conditions: 2 µM
[4] = The drug is tested on Bacteroides cellulosilyticus strain: DSM14838 for biotransformation. The drug concentrations were measured before and after a 12-h incubation by liquid-chromatography-coupled mass spectrometry (LC–MS); conditions: 2 µM
[5] = The drug is tested on Bacteroides fragilis strain: HMW615 for biotransformation. The drug concentrations were measured before and after a 12-h incubation by liquid-chromatography-coupled mass spectrometry (LC–MS); conditions: 2 µM
[6] = The drug is tested on Bacteroides fragilis strain: ATCC43859 for biotransformation. The drug concentrations were measured before and after a 12-h incubation by liquid-chromatography-coupled mass spectrometry (LC–MS); conditions: 2 µM
[7] = The drug is tested on Bacteroides ovatus strain: ATCC8483 for biotransformation. The drug concentrations were measured before and after a 12-h incubation by liquid-chromatography-coupled mass spectrometry (LC–MS); conditions: 2 µM
[8] = The drug is tested on Bacteroides uniformis strain: ATCC8492 for biotransformation. The drug concentrations were measured before and after a 12-h incubation by liquid-chromatography-coupled mass spectrometry (LC–MS); conditions: 2 µM
[9] = The drug is tested on Bacteroides vulgatus strain: ATCC8482 for biotransformation. The drug concentrations were measured before and after a 12-h incubation by liquid-chromatography-coupled mass spectrometry (LC–MS); conditions: phocaeicola vulgatus, 2 µM
[10] = The drug is tested on Bacteroides xylanisolvens strain: DSM18836 for biotransformation. The drug concentrations were measured before and after a 12-h incubation by liquid-chromatography-coupled mass spectrometry (LC–MS); conditions: 2 µM
[11] = The drug is tested on Odoribacter splanchnicus strain: fecal isolate for biotransformation. The drug concentrations were measured before and after a 12-h incubation by liquid-chromatography-coupled mass spectrometry (LC–MS); conditions: 2 µM
[12] = The drug is tested on Parabacteroides merdae strain: ATCC43184 for biotransformation. The drug concentrations were measured before and after a 12-h incubation by liquid-chromatography-coupled mass spectrometry (LC–MS); conditions: 2 µM
[13] = The drug is tested on Clostridium sp. strain: fecal isolate for biotransformation. The drug concentrations were measured before and after a 12-h incubation by liquid-chromatography-coupled mass spectrometry (LC–MS); conditions: 2 µM
[14] = The drug is tested on Eubacterium rectale strain: ATCC33656 for biotransformation. The drug concentrations were measured before and after a 12-h incubation by liquid-chromatography-coupled mass spectrometry (LC–MS); conditions: agathobacter rectalis, 2 µM
[15] = The drug is tested on Edwardsiella tarda strain: ATCC23685 for biotransformation. The drug concentrations were measured before and after a 12-h incubation by liquid-chromatography-coupled mass spectrometry (LC–MS); conditions: 2 µM
[16] = bacteroides eggerthii, 12 h, 2 µM
Description: The drug is tested on Bacteroides eggerthii strain: DSM20697 for biotransformation. The drug concentrations were measured before and after a 12-h incubation by liquid-chromatography-coupled mass spectrometry (LC–MS)

[17] = bacteroides fragilis, 12 h, 2 µM
Description: The drug is tested on Bacteroides fragilis strain: NCTC 9343 for biotransformation. The drug concentrations were measured before and after a 12-h incubation by liquid-chromatography-coupled mass spectrometry (LC–MS)

[18] = anaerostipes sp., 12 h, 2 µM
Description: The drug is tested on Anaerostipes sp. strain: fecal isolate for biotransformation. The drug concentrations were measured before and after a 12-h incubation by liquid-chromatography-coupled mass spectrometry (LC–MS)

[19] = victivallis vadensis, 12 h, 2 µM
Description: The drug is tested on Victivallis vadensis strain: ATCC BAA-548 for biotransformation. The drug concentrations were measured before and after a 12-h incubation by liquid-chromatography-coupled mass spectrometry (LC–MS)

[20] = bacteroides fragilis, 12 h, 2 µM; remark: listed apart in the source
Description: The drug is tested on Bacteroides fragilis strain: DS-208 for biotransformation. The drug concentrations were measured before and after a 12-h incubation by liquid-chromatography-coupled mass spectrometry (LC–MS)

Compound | Bacterial Biotransformation [1] | Bacterial Biotransformation [2] | Bacterial Biotransformation [3] | Bacterial Biotransformation [4] | Bacterial Biotransformation [5] | Bacterial Biotransformation [6] | Bacterial Biotransformation [7] | Bacterial Biotransformation [8] | Bacterial Biotransformation [9] | Bacterial Biotransformation [10] | Bacterial Biotransformation [11] | Bacterial Biotransformation [12] | Bacterial Biotransformation [13] | Bacterial Biotransformation [14] | Bacterial Biotransformation [15] | Bacterial Biotransformation [16] | Bacterial Biotransformation [17] | Bacterial Biotransformation [18] | Bacterial Biotransformation [19] | Bacterial Biotransformation [20]
CC[C@H](C)C(=O)O[C@H]1C[C@@H](C)C=C2C=C[C@H](C)[C@H](CC[C@@H]3C[C@@H](O)CC(=O)O3)[C@H]21 [LOVASTATIN] | Compound metabolized | Compound NOT metabolized | Compound NOT metabolized | Compound metabolized | Compound metabolized | Compound NOT metabolized | Compound NOT metabolized | Compound metabolized | Compound metabolized | Compound NOT metabolized | Compound metabolized | Compound metabolized | Compound metabolized | Compound NOT metabolized | Compound NOT metabolized | Compound NOT metabolized | Compound metabolized | Compound NOT metabolized | Compound NOT metabolized | 
CCOC(=O)C1=C(C)NC(C)=C(C(=O)OC)C1c1cccc([N+](=O)[O-])c1 (stereo not given) [NITRENDIPINE] | Compound metabolized | Compound metabolized | Compound metabolized | Compound metabolized | Compound metabolized | Compound metabolized |  | Compound metabolized | Compound metabolized | Compound metabolized | Compound metabolized | Compound metabolized | Compound metabolized | Compound metabolized | Compound metabolized | Compound metabolized | Compound metabolized | Compound metabolized | Compound metabolized | Compound metabolized
CNC(=C[N+](=O)[O-])NCCSCc1csc(CN(C)C)n1 [NIZATIDINE] | Compound metabolized | Compound NOT metabolized | Compound metabolized | Compound metabolized | Compound metabolized | Compound NOT metabolized | Compound NOT metabolized | Compound NOT metabolized | Compound metabolized | Compound metabolized |  | Compound NOT metabolized | Compound metabolized | Compound metabolized | Compound metabolized | Compound metabolized | Compound metabolized | Compound metabolized | Compound NOT metabolized | Compound metabolized
COc1ccc2c(c1OC)C(=O)O[C@@H]2[C@H]1c2c(cc3c(c2OC)OCO3)CCN1C [NOSCAPINE] | Compound metabolized | Compound NOT metabolized | Compound metabolized | Compound metabolized | Compound NOT metabolized | Compound NOT metabolized | Compound metabolized | Compound metabolized | Compound metabolized | Compound metabolized | Compound metabolized | Compound metabolized |  |  | Compound metabolized | Compound NOT metabolized | Compound metabolized | Compound metabolized | Compound NOT metabolized | Compound metabolized
Nc1ccc(/N=N/c2ccccc2)c(N)n1 [PHENAZOPYRIDINE] | Compound metabolized | Compound metabolized | Compound metabolized | Compound metabolized | Compound metabolized | Compound metabolized | Compound metabolized | Compound metabolized | Compound metabolized | Compound metabolized | Compound metabolized | Compound metabolized | Compound metabolized | Compound metabolized |  | Compound metabolized | Compound metabolized | Compound metabolized | Compound metabolized | Compound metabolized
CCOc1cc(CC(=O)N[C@@H](CC(C)C)c2ccccc2N2CCCCC2)ccc1C(=O)O [REPAGLINIDE] | Compound metabolized | Compound NOT metabolized | Compound NOT metabolized | Compound metabolized | Compound metabolized | Compound metabolized | Compound NOT metabolized | Compound metabolized | Compound NOT metabolized | Compound metabolized | Compound NOT metabolized | Compound NOT metabolized | Compound NOT metabolized | Compound NOT metabolized | Compound NOT metabolized | Compound metabolized |  | Compound NOT metabolized | Compound NOT metabolized | 
CC(=O)OCC(=O)NCCCOc1cccc(CN2CCCCC2)c1 [ROXATIDINE ACETATE] | Compound metabolized | Compound metabolized | Compound metabolized | Compound metabolized | Compound metabolized | Compound metabolized | Compound metabolized | Compound metabolized | Compound metabolized | Compound metabolized | Compound metabolized | Compound metabolized |  | Compound NOT metabolized | Compound metabolized | Compound metabolized | Compound metabolized | Compound metabolized | Compound metabolized | Compound metabolized
O=C(O)c1cc(/N=N/c2ccc(S(=O)(=O)Nc3ccccn3)cc2)ccc1O [SULFASALAZINE] | Compound metabolized | Compound metabolized | Compound metabolized | Compound metabolized | Compound metabolized | Compound metabolized | Compound metabolized | Compound metabolized | Compound metabolized | Compound metabolized | Compound metabolized | Compound metabolized | Compound metabolized | Compound metabolized |  | Compound metabolized | Compound metabolized | Compound metabolized | Compound metabolized | Compound metabolized
